Experimental data: patent US8076485B2, “Methylphenidate derivatives and uses of them” (priority 2005, dated 2011)

How the values were obtained:
Ras = Ras activation pulldown assay in TRiPS cells; type: cell-based, human; conditions: 15 μg/ml
Procedure: Day 10 TRiPS cells, 1×10^6, were incubated with 15 μg/ml of the compound of formula II (Cpd II) for 1 hour at 37° C. Then, the cells were incubated with CD3/CD28 beads (1 μl per 100,000 cells) (obtained from Dynal) for 10 minutes at 37° C. The cells were then lysed with a mild buffer (supplied with Pierce EZ-Detect activation kit described below) to produce cell extracts. Protein concentrations of the resulting extracts were determined by bicinchoninic acid (BCA) assay (Pierce) and placed on ice for immediate use.
Pulldown assays were performed using Pierce EZ-Detect activation kits according to the manufacturer's instructions utilizing GST-RAF-1-RBD and GST-RalGDS-RBD for Ras and RAP-1 respectively. Briefly, 400 μg total protein from each extract was combined with recombinant protein and glutathione resin and incubated at 4° C. for one hour with gentle shaking The resin was then washed to remove unbound protein and the activated Ras and RAP-1 proteins were removed by boiling in the presence of SDS-PAGE loading dye containing reducing agent. Ras and RAP-1 western blots were performed to visualize the proteins using antibodies supplied with the kit. Densitometry of the X-ray films was done by scanning and computer analysis.

c-Jun = c-Jun in VEGF-treated HUVECs (TransAM AP-1 assay); type: cell-based, human; conditions: Cpd II at 15 μg/ml and 5 μg/ml
Procedure: The amount of c-Jun was determined using a TransAM™ AP-1 Family Transcription Factor Assay Kit and a Nuclear Extract Kit from Active Motif North America, Carlsbad, Calif., according to manufacturer's instructions. Briefly, a nuclear extract of the cells was prepared using the Nuclear Extract Kit. Then, the nuclear extract was added to the wells of a 96-well plate in which oligonucleotide containing a TPA-responsive element (TRE) was immobilized. Activator protein-1 (AP-1) dimers contained in the nuclear extract were bound to this oligonucleotide and were detected using an antibody specific for c-Jun. A secondary antibody conjugated to horseradish peroxidase (HRP) was next added to provide a colorimetric readout that was quantified by spectrophotometry (measurement at 450 nm).

TCR-positive cells = experiment: Annexin staining of TCR-positive cells (flow cytometry, cell death); type: cell-based, human; conditions: PHA 5 μg/ml plus 50 μg/ml; PHA alone 67%
Procedure: (§1) After this incubation, PHA was added to give a final concentration of 5 μg/ml, and the cells were incubated for an additional 72 hours at 37° C., 5% CO2. All cultures were performed in triplicate. Cells were then removed by centrifugation at 1000 rpm for 10 minutes.
The cells were further analyzed by flow cytometry Annexin was used to determine populations of dead or dying cells. Anti-CD69 antibody was used to establish the level of cellular activation. Antibody to T-cell receptor αβ (TCR) was also used. Recombinant Annexin 5 (PE and FITC conjugates) and the antibodies were all purchase from Caltag (Burlingham, Calif.) and used following the manufacturer's recommendations.

NFκB = experiment: Activated NFκB in VEGF-treated HUVECs (TransAM assay); type: cell-based, human; conditions: Cpd II at 15 μg/ml and 5 μg/ml
Procedure: Passage 5 HUVECs, human source lot number 8750, were grown to confluence in 25 cm^2 flasks in EGM-2 medium. The following additives were added to the flasks (total volume of 5 ml/flask) in EGM-2 medium containing 2% FCS, GA1000 (gentamycin), heparin and ascorbic acid (all from Cambrex): 1 μg/ml of the compound of formula II (Cpd II); 5 μg/ml Cpd II; 15 μg/ml of Cpd II; 15 μg/ml methylphenidate (MP); or 10 μM LY 294002. The flasks were incubated overnight at 37° C., 5% CO2. After this incubation, VEGF was added to give a final concentration 10 ng/ml, and the flasks were incubated for an additional 30 minutes.
Then, the amount of NFκB was determined using a TransAM™ NFκB p65/NFκB p50 Transcription Factor Assay Kit and a Nuclear Extract Kit from Active Motif North America, Carlsbad, Calif., according to the manufacturer's instructions. Briefly, a nuclear extract of the cells was prepared using the Nuclear Extract Kit. Then, the nuclear extract was added to the wells of the 96-well plate of the TransAM™ kit. […] Then, an antibody directed against the NFκB p65 or p50 subunit was added, and the NFκB complex bound to the oligonucleotide was detected. A secondary antibody conjugated to horseradish peroxidase (HRP) was next added to provide a colorimetric readout that was quantified by spectrophotometry (measurement at 450 nm).

TNFα = TNFα release by PHA-stimulated PBL (ELISA); type: cell-based, human; conditions: Example 3, GR191 PBL, Cpd II 15 and 50 μg/ml, Dex 10 μM, 72 hours, FIG. 7
Procedure: as §1
The TNFα ELISA was performed as described in Example 2 using matched pair antibodies from Pierce Endogen (2 μg/ml for the coating antibody and 250 ng/ml for the second antibody).

IL-8 = IL-8 release by LPS-stimulated HUVECs (ELISA); type: cell-based, human; conditions: 15 μg/ml
Procedure: Passage 4 HUVECs, lot number 9713, were put into the wells of a 48-well tissue culture plate at 20,000 cells/well in 500 μl of EGM-2 complete medium (but without serum or ascorbate) supplemented with ITSS (insulin, transferrin and sodium selenite) (obtained from Sigma). Also, passage 4 HUVECs, human source lot number 7016 (obtained from ATCC), were put into the wells of a 48-well tissue culture plate at 20,000 cells/well in 500 μl of EGM-2 complete medium (but without serum or ascorbate) supplemented with ITSS. The following additives were added to the cells: water (vehicle control) and 15 μg/ml of the compound of formula II (Cpd II). After incubation for 1 hour at 37° C. and 5% CO2, LPS was added to give a final concentration of 200 ng/ml, and the cells were incubated overnight at 37° C. and 5% CO2. After this incubation, the supernatants were collected, and the amount of IL-8 in the supernatants determined by ELISA as described in Example 4.

[1] = mice; cited from earlier work

COC(=O)C(c1ccc(-c2ccccc2)cc1)C1CCCCN1 (stereo not drawn) [Cpd II]
inhibition of Ras protein (Ras): very strong inhibition of Ras protein | increase in the amount of c-Jun (c-Jun): completely eliminated the increase in the amount of c-Jun | Annexin staining of TCR-positive cells (cell death) (TCR-positive cells): 87% | amount of activated NFκB (NFκB): reduced the amount of activated NFκB back to basal levels | release of TNFα from PHA-stimulated PBL (TNFα): significantly inhibited the release of TNFα | IL-8 (pg/ml) (IL-8; 7016 HUVECs, LPS 200 ng/ml overnight, LPS only 53.3): Below detection | IL-8 release (IL-8; 7016 HUVECs, LPS 200 ng/ml): complete eliminated IL-8 release | decrease of IL-8 release (IL-8; 9713 HUVECs, LPS 200 ng/ml): 90%

COC(=O)C(c1ccccc1)C1CCCCN1 (stereo not drawn) [methylphenidate]
carcinogenicity [1]: some evidence that methylphenidate is carcinogenic in mice
